Data from patent US4769373A, “Anti-arrhythmic azabicyclic compounds” (Richter Gedeon Vegyeszeti Gyar Rt., priority 1983, dated 1988).
Counter-ions that a name gives are not always drawn.

Key:
[1] = system: disorders of the cardiac rhythm provoked by aconitine; experiment: animal or person; conditions: for ED50: Rattus norvegicus, iv, read-out: ED50 (dose required to restore the rhythm in 50%), Wistar rats, i.v., aconitine-induced arrhythmia; for LD50/ED50 index: LD50 mice i.v. / ED50 rats i.v.; for ED50 (dose required to restore the rhythm in 50%): i.v., aconitine-induced arrhythmia; for index ratio (index of the test compound : index of Lidocaine): relative to Lidocaine = 1
Experimental: The anti-arrhytmic effect was tested in Wistar rats. The animals first received aconitine intravenously to provoke disorders of the cardiac rhythm [M. Fekete and J. Borsy: Med. Exp. Basel, 10, 93 (1964)] and then i.v. the test (or reference) compound. […] The dose required to restore the rhythm in 50% (ED50 mg/kg) was determined.

[2] = system: ischiadic nerve isolated from frog; experiment: local anaesthetic activity on isolated ischiadic nerve; conditions: relative to Lidocaine
[3] = in vivo; conditions: mouse, iv, mice, i.v., read-out: LD50 (dose causing 50% mortality)
[4] = system: heart isolated from guinea pig; experiment: electrophysiological parameters (conduction time, refractory period) of isolated heart; conditions: relative to quinidine
Description: The new compounds have no beta-receptor blocking effect. In a local anaesthetic mechanism of effect the compounds of the formula (I) influence certain electrophysiological parameters of the heart. E.g. increase in conduction time and refractory period were observed on heart isolated from guinea pig.

SMILES: CN1CC2CCC(N(C)C)C(C1)C2OC(=O)c1cccc(F)c1 (stereo not drawn) [compound 1642, 6α-dimethylamino-3-methyl-9α-(3'-fluorobenzoyloxy)-3-azabicyclo[3.3.1]nonane dihydrochloride]
- ED50 [1]: 0.5 mg/kg

SMILES: CN1CC2CCC(N(C)C)C(C1)C2Oc1cccc(C(F)(F)F)c1 (stereo not drawn) [compound 1539, 6α-dimethylamino-3-methyl-9α-(3'-trifluoromethylphenoxy)-3-azabicyclo[3.3.1]nonane fumarate]
- LD50/ED50 index [1]: 256.0
- ED50 (dose required to restore the rhythm in 50%) ([1]; Wistar rats): 0.25 mg/kg
- index ratio (index of the test compound : index of Lidocaine) [1]: 78.5
- local anaesthetic activity compared with Lidocaine [2]: as active as the Lidocaine
- LD50 [3]: 64 mg/kg

SMILES: CN1CC2CCC(N(C)C)C(C1)C2OC(=O)c1ccc2ccccc2c1 (stereo not drawn) [compound 1840, 6β-dimethylamino-3-methyl-9α-(2'naphthoyloxy)-3-azabicyclo[3.3.1]nonane dihydrochloride]
- ED50 (dose required to restore the rhythm in 50%) ([1]; Wistar rats, dihydrochloride): 0.95 mg/kg

SMILES: CN1CC2CCC(N(C)C)C(C1)C2OC(=O)C1c2ccccc2Oc2ccccc21 (stereo not drawn) [compound 1543, 6β-dimethylamino-3-methyl-9α-(xanthen-9'-carbonyloxy)-3-azabicyclo[3.3.1]nonane]
- ED50 (dose required to restore the rhythm in 50%) ([1]; Wistar rats): 0.6 mg/kg

SMILES: CN1CC2CCC(N(C)C)C(C1)C2Oc1cccc(Cl)c1 (stereo not drawn) [compound 1535, 6α-dimethylamino-3-methyl-9α-(3'-chlorophenoxy)-3-azabicyclo[3.3.1]nonane monohydrochloride]
- ED50 [1]: 2.5 mg/kg

SMILES: Cc1ccc(C(=O)OC2C3CCC(N(C)C)C2CN(C)C3)cc1 (stereo not drawn) [compound 1799, 6α-dimethylamino-3-methyl-9α-(4'-methylbenzoyloxy)-3-azabicyclo[3.3.1]nonane dihydrochloride]
- ED50 [1]: 1.1 mg/kg

SMILES: CN1CC2CCC(N(C)C)C(C1)C2OC(=O)c1ccc(Cl)cc1 (stereo not drawn) [compound 1800, 6α-dimethylamino-3-methyl-9α-(4'-chlorobenzoyloxy)-3-azabicyclo[3.3.1]nonane dihydrochloride]
- ED50 (dose required to restore the rhythm in 50%) ([1]; Wistar rats, dihydrochloride): 0.75 mg/kg

SMILES: CN1CC2CCC(N(C)C)C(C1)C2OC(=O)c1ccc(Cl)cc1 (stereo not drawn) [compound 1658, 6β-dimethylamino-3-methyl-9α-(4'-chlorobenzoyloxy)-3-azabicyclo[3.3.1]nonane dihydrochloride]
- ED50 (dose required to restore the rhythm in 50%) ([1]; Wistar rats, dihydrochloride): 2.3 mg/kg

SMILES: CN1CC2CCC(N(C)C)C(C1)C2OC(=O)c1cccs1 (stereo not drawn) [compound 1797, 6α-dimethylamino-3-methyl-9α-(2'-thenoyloxy)-3-azabicyclo[3.3.1]nonane]
- ED50 [1]: 0.45 mg/kg

SMILES: CN1CC2CCC(N(C)C)C(C1)C2OC(=O)c1ccc(F)cc1 (stereo not drawn) [compound 1641, 6α-dimethylamino-3-methyl-9α-(4'-fluorobenzoyloxy)-3-azabicyclo[3.3.1]nonane dihydrochloride monohydrate]
- ED50 [1]: 0.55 mg/kg

SMILES: CN1CC2CCC(N(C)C)C(C1)C2OC(c1ccccc1)c1ccccc1 (stereo not drawn) [compound 1540, 6α-dimethylamino-3-methyl-9α-benzhydryloxy-3-azabiocyclo[3.3.1]nonane]
- ED50 [1]: 0.4 mg/kg

SMILES: CN1CC2CCC(N(C)C)C(C1)C2OC(=O)c1cccc(Cl)c1 (stereo not drawn) [compound 1645, 6α-dimethylamino-3-methyl-9α-(3'-chlorobenzoyloxy)-3-azabicyclo[3.3.1]nonane dihydrochloride monohydrate]
- ED50 [1]: 1.2 mg/kg

SMILES: CN1CC2CCC(N(C)C)C(C1)C2OC(=O)c1ccc2ccccc2c1 (stereo not drawn) [compound 1801, 6α-dimethylamino-3-methyl-9α-(2'-naphthoyloxy)-3-azabicyclo[3.3.1]nonane]
- ED50 [1]: 0.7 mg/kg

SMILES: Cc1ccc(OC2C3CCC(N(C)C)C2CN(C)C3)cc1 (stereo not drawn) [compound 1548, 6α-dimethylamino-3-methyl-9α-(4'-methylphenoxy)-3-azabicyclo[3.3.1]nonane fumarate]
- ED50 [1]: 2.5 mg/kg

SMILES: CN1CC2CCC(N(C)C)C(C1)C2Oc1ccccc1Cl (stereo not drawn) [compound 1536, 6α-dimethylamino-3-methyl-9α-(2'-chlorophenoxy)-3-azabicyclo[3.3.1]nonane dihydrochloride]
- ED50 [1]: 1.8 mg/kg

SMILES: CN1CC2CCC(N(C)C)C(C1)C2OC(=O)c1ccccc1 (stereo not drawn) [compound 1542, 6β-dimethylamino-3-methyl-9α-benzoyloxy-3-azabicyclo[3.3.1]nonane]
- LD50/ED50 index [1]: 50.5
- ED50 (dose required to restore the rhythm in 50%) ([1]; Wistar rats): 0.43 mg/kg
- index ratio (index of the test compound : index of Lidocaine) [1]: 15.5
- local anaesthetic activity compared with Lidocaine [2]: four times more favorable effective than Lidocaine
- activity on electrophysiological parameters compared with quinidine [4]: about five times more active than the quinidine
- LD50 [3]: 21.7 mg/kg

SMILES: CN1CC2CCC(N(C)C)C(C1)C2Oc1cccc(C(F)(F)F)c1 (stereo not drawn) [compound 1545, 6β-dimethylamino-3-methyl-9α-(3'-trifluoromethylphenoxy)-3-azabicyclo[3.3.1]nonane dihydrochloride]
- ED50 (dose required to restore the rhythm in 50%) ([1]; Wistar rats, dihydrochloride): 1.8 mg/kg

SMILES: CN1CC2CCC(N(C)C)C(C1)C2OC(=O)c1ccccc1 (stereo not drawn) [compound 1541, 6α-dimethylamino-3-methyl-9β-benzoyloxy-3-azabicyclo[3.3.1]nonane dihydrochloride]
- ED50 (dose required to restore the rhythm in 50%) ([1]; Wistar rats, dihydrochloride): 3.5 mg/kg

SMILES: CN1CC2CCC(N(C)C)C(C1)C2OC(=O)c1ccccc1Cl (stereo not drawn) [compound 1644, 6α-dimethylamino-3-methyl-9α-(2'-chlorobenzoyloxy)-3-azabicyclo[3.3.1]nonane dihydrochloride monohydrate]
- ED50 [1]: 1.4 mg/kg

SMILES: CN1CC2CCC(N(C)C)C(C1)C2Oc1ccc(Cl)c(Cl)c1 (stereo not drawn) [compound 1537, 6α-dimethylamino-3-methyl-9α-(3',4'-dichlorophenoxy)-3-azabicyclo[3.3.1]noname fumarate]
- ED50 [1]: 4 mg/kg

SMILES: CN1CC2CCC(N(C)C)C(C1)C2Oc1ccc(Cl)cc1 (stereo not drawn) [compound 1534, 6α-dimethylamino-3-methyl-9α-(4'-chlorophenoxy)-3-azabicyclo[3.3.1]nonane fumarate]
- ED50 [1]: 1.1 mg/kg

SMILES: CCN(CC)CC(=O)Nc1c(C)cccc1C [Lidocaine, reference compound]
- ED50 [1]: 7.7 mg/kg

SMILES: CN1CC2CCC(N(C)C)C(C1)C2OC(=O)C1c2ccccc2Oc2ccccc21 (stereo not drawn) [compound 1531, 6α-dimethylamino-3-methyl-9α-(xanthen-9-carbonyloxy)-3-azabicyclo[3.3.1]nonane dihydrochloride]
- ED50 [1]: 1 mg/kg

SMILES: CN1CC2CCC(N(C)C)C(C1)C2OC(=O)c1ccc(Cl)c(Cl)c1 (stereo not drawn) [compound 1643, 6α-dimethylamino-3-methyl-9α-(3',4'-dichlorobenzoyloxy)-3-azabicyclo[3.3.1]nonane dihydrochloride]
- ED50 [1]: 1.2 mg/kg

SMILES: CN1CC2CCC(N(C)C)C(C1)C2OC(=O)C1c2ccccc2Oc2ccccc21 (stereo not drawn) [compound 1547, 6α-dimethylamino-3-methyl-9β-(xanthen-9'-carbonyloxy)-3-azabicyclo[3.3.1]nonane]
- LD50/ED50 index [1]: 51.1
- ED50 (dose required to restore the rhythm in 50%) ([1]; Wistar rats): 0.71 mg/kg
- index ratio (index of the test compound : index of Lidocaine) [1]: 15.7
- LD50 [3]: 36.3 mg/kg

SMILES: CN1CC2CCC(N(C)C)C(C1)C2OC(=O)c1ccccc1 (stereo not drawn) [compound 1528, 6α-dimethylamino-3-methyl-9α-benzoyloxy-3-azabicyclo[3.3.1]nonane dihydrochloride]
- ED50 (dose required to restore the rhythm in 50%) ([1]; Wistar rats, dihydrochloride): 0.68 mg/kg

SMILES: CN1CC2CCC(N(C)C)C(C1)C2OC(=O)c1ccc(-c2ccccc2)cc1 (stereo not drawn) [compound 1530, 6α-dimethylamino-3-methyl-9α-(4'-phenylbenzoyloxy)-3-azabicyclo[3.3.1]nonane]
- ED50 [1]: 1.8 mg/kg

SMILES: CN1CC2CCC(N(C)C)C(C1)C2Oc1ccccc1 (stereo not drawn) [compound 1533, 6α-dimethylamino-3-methyl-9α-phenoxy-3-azabicyclo[3.3.1]nonane]
- ED50 [1]: 1.4 mg/kg

SMILES: CN1CC2CCC(N(C)C)C(C1)C2OC(=O)c1cccc(C(F)(F)F)c1 (stereo not drawn) [compound 1648, 6α-dimethylamino-3-methyl-9α-(3'-trifluoremethylbenzoyloxy)-3-azabicyclo[3.3.1]nonane dihydrochloride]
- ED50 [1]: 1 mg/kg

SMILES: COc1cc(C(=O)OC2C3CCC(N(C)C)C2CN(C)C3)cc(OC)c1OC (stereo not drawn) [compound 1529, 6α-dimethylamino-3-methyl-9α(3',4',5'-trimethoxybenzoyloxy)-3-azabicyclo[3.3.1]nonane]
- LD50/ED50 index [1]: 234.0
- ED50 [1]: 0.15 mg/kg
- anti-arrhythmic effect, oral ([1]; Wistar rats, 20 mg/kg dose p.o.): prolonged anti-arrhythmic effect
- index ratio (index of the test compound : index of Lidocaine) [1]: 71.8
- LD50 [3]: 35.2 mg/kg

SMILES: CN1CC2CCC(N(C)C)C(C1)C2Oc1ccccc1 (stereo not drawn) [compound 1544, 6β-dimethylamino-3-methyl-9α-phenoxy-3-azabicyclo-[3.3.1]nonane]
- ED50 (dose required to restore the rhythm in 50%) ([1]; Wistar rats): 1.4 mg/kg
